Measured values published in patent publication US20070213303A1, “Methods for reducing platelet activation and for the treatment of thrombotic events” (priority 2005, published 2007).

Assays:
Type in all cases: cell-based, human
GP37 (CD165) = test: Flow cytometry, platelet surface expression of CD165
Protocol: (§1) Venous blood (8 ml) is collected in a plastic tube containing 2 ml of acid-citrate-dextrose (ACD) (7.3 g citric acid, 22.0 g sodium citrate.2H2O and 24.5 glucose in 1000 ml distilled water) and mixed well. The blood-ACD mixture is centrifuged at 1000 r.p.m. for 10 minutes at room temperature. The upper ⅔ of the platelet-rich plasma (PRP) is then collected and adjusted to pH=6.5 by adding ACD. The PRP is then centrifuged at 3000 r.p.m. for 10 minutes. The supernatant is removed and the platelet pellet is gently resuspended in 4 cc of the washing buffer (10 mM Tris/HCl, 0.15 M NaCl, 20 mM EDTA, pH=7.4). Platelets are washed in the washing buffer, and in TBS (10 mM Tris, 0.15 M NaCl, pH=7.4). All cells are then divided into the appropriate number of tubes. By way of example, if 9 different surface markers are evaluated, as described herein, then the cells should be divided into ten tubes, such that nine tubes containing washed platelets are incubated with 5 μl fluorescein isothiocyanate (FITC)-conjugated antibodies in the dark at +4° C. for 30 minutes, and one tube remains unstained and serves as a negative control. Surface antigen expression is measured with monoclonal murine anti-human antibodies, such as CD9 (p24); CD41a (IIb/IIIa, aIIbb3); CD42b (Ib); CD61(IIIa) (DAKO Corporation, Carpinteria, Calif.); CD49b (VLA-2, or a2b1); CD62p (P-selectin); CD31 (PECAM-1); CD 41b (IIb); and CD51/CD61 (vitronectin receptor, avb3) (PharMingen, San Diego Calif.), as the expression of these antigens on the cells is associated with platelet activation. After incubation, the cells are washed with TBS and resuspended in 0.25 ml of 1% paraformaldehyde. Samples are stored in the refrigerator at +4° C., and analyzed on a Becton Dickinson FACScan flow cytometer with laser output of 15 mw, excitation at 488 nm, and emission detection at 530±30 nm. The data can be collected and stored in list mode, and then analyzed using CELLQuest® software. FACS procedures are described in detail in, e.g., Gurbel, P. A. et al., J Amer Coll Cardiol 31: 1466-1473 (1998); Serebruany, V. L. et al., Am Heart J 136: 398-405 (1998); Gurbel, P. A. et al., Coron Artery Dis 9: 451-456 (1998) and Serebruany, V. L. et al., Arterioscl Thromb Vasc Biol 19: 153-158 (1999).
(§2) Four cc of blood is collected in a tube, containing 2 cc of acid-citrate-dextrose (ACD; 7.3 g citric acid, 22.0 g sodium citrate.2H2O and 24.5 glucose in 1000 ml distilled water) and mixed well. The buffer, TBS (10 mM Tris, 0.15 M NaCl, pH 7.4) and the following fluorescein isothiocyanate (FITC) conjugated monoclonal antibodies (PharMingen, San Diego, Calif., USA, and DAKO, Calif., USA) are removed from a refrigerator and allowed to warm at room temperature (RT) prior to their use. The non-limiting examples of antibodies that can be used include CD41 (IIb/IIIa), CD31 (PECAM-1), CD62p (P-selectin), and CD51/61 (Vitronectin receptor). For each subject, six amber tubes (1.25 ml) are one Eppendorf tube (1.5 ml) are obtained and marked appropriately 450 μl of TBS buffer is pipetted to the labeled Eppendorf tube. A patient's whole blood tube is inverted gently twice to mix, and 50 μl of whole blood is pipetted to the appropriately labeled Eppendorf tube. The Eppendorf tube is capped and the diluted whole blood is mixed by inverting the Eppendorf tube gently two times, followed by pipetting 50 μl of diluted whole blood to each amber tube. […] The samples are analyzed on a Becton Dickinson FACScan flow cytometer. […]

thrombospondin (CD36) = test: Flow cytometry, platelet surface expression of thrombospondin
Protocol: as §1, §2

platelets [1] = test: Conventional platelet aggregation induced by collagen
Protocol: Trisodium citrate (3.8%) and whole blood is immediately mixed in a 1:9 ratio, and then centrifuged at 1200 g for 2.5 minutes, to obtain platelet-rich plasma (PRP), which is kept at room temperature for use within 1 hour for platelet aggregation studies. Platelet count is determined in each PRP sample with a Coulter Counter ZM (Coulter Co., Hialeah, Fla.). Platelet numbers are adjusted to 3.50×10^8/ml for aggregation with homologous platelet-poor plasma. PRP and whole blood aggregation tests are performed simultaneously. Whole blood is diluted 1:1 with the 0.5 ml PBS, and then swirled gently to mix. The cuvette with the stirring bar is placed in the incubation well and allowed to warm to 37° C. for 5 minutes. Then the samples are transferred to the assay well. An electrode is placed in the sample cuvette. […] All agonists are obtained, e.g., from Chronolog Corporation (Hawertown, Pa.). Platelet aggregation studies are performed using a Chrono-Log Whole Blood Lumi-Aggregometer (model 560-Ca). Platelet aggregability is expressed as the percentage of light transmittance change from baseline using platelet-poor plasma as a reference at the end of recording time for plasma samples, or as a change in electrical impedance for whole blood samples. Aggregation curves are recorded for 4 minutes and analyzed according to internationally established standards using Aggrolink® software.
(§3) The effect of doses (15 μg/ml to 90 μg/ml) of Compound A on in vitro platelet characteristics in subjects with multiple factors for vascular disease was tested.
(§4) The in vitro effects of pre-incubation with escalating concentrations of Compound A on platelet aggregation, and expression of major surface receptors by flow cytometry, were assessed in 20 aspirin naïve volunteers with multiple risk factors for vascular disease.

PAC-1 = test: Flow cytometry, activity with PAC-1 antibody
Protocol: as §1, §2

PAR-1 (SPAN-12) = test: Flow cytometry, PAR-1 thrombin receptor expression (SPAN-12)
Protocol: as §1, §2

platelets [2] = test: Conventional platelet aggregation induced by ADP
Protocol: Trisodium citrate (3.8%) and whole blood is immediately mixed in a 1:9 ratio, and then centrifuged at 1200 g for 2.5 minutes, to obtain platelet-rich plasma (PRP), which is kept at room temperature for use within 1 hour for platelet aggregation studies. Platelet count is determined in each PRP sample with a Coulter Counter ZM (Coulter Co., Hialeah, Fla.). Platelet numbers are adjusted to 3.50×10^8/ml for aggregation with homologous platelet-poor plasma. PRP and whole blood aggregation tests are performed simultaneously. Whole blood is diluted 1:1 with the 0.5 ml PBS, and then swirled gently to mix. The cuvette with the stirring bar is placed in the incubation well and allowed to warm to 37° C. for 5 minutes. Then the samples are transferred to the assay well. An electrode is placed in the sample cuvette. Platelet aggregation is stimulated with 5 μM ADP, 1 μg/ml collagen, and 0.75 mM arachidonic acid. All agonists are obtained, e.g., from Chronolog Corporation (Hawertown, Pa.). Platelet aggregation studies are performed using a Chrono-Log Whole Blood Lumi-Aggregometer (model 560-Ca). Platelet aggregability is expressed as the percentage of light transmittance change from baseline using platelet-poor plasma as a reference at the end of recording time for plasma samples, or as a change in electrical impedance for whole blood samples. Aggregation curves are recorded for 4 minutes and analyzed according to internationally established standards using Aggrolink® software.
as §3, §4

PECAM-1 (CD31) = test: Flow cytometry, platelet surface expression of CD31
Protocol: as §1, §2

PAR-1 (WEDE15) = test: Flow cytometry, PAR-1 thrombin receptor expression (WEDE15)
Protocol: as §1, §2

- PAR-1 thrombin receptor expression, intact epitope (PAR-1 (SPAN-12); pretreated samples): reduced
- PAR-1 thrombin receptor expression, active epitope (PAR-1 (WEDE15); pretreated samples): reduced
SMILES: CC(C)(Sc1cc(C(C)(C)C)c(O)c(C(C)(C)C)c1)Sc1cc(C(C)(C)C)c(OC(=O)CCC(=O)O)c(C(C)(C)C)c1 [Compound A]
- GP37 (CD165) (GP37 (CD165)): little or no effect
- Flow cytometry CD165 (GP37 (CD165); preincubation 15 μg/mL): 26.9 ± 2.7
- Flow cytometry CD165 (GP37 (CD165); preincubation 30 μg/mL): 24.7 ± 2.7
- Flow cytometry CD165 (GP37 (CD165); preincubation 60 μg/mL): 26.4 ± 3.7
- Flow cytometry CD165 (GP37 (CD165); preincubation 90 μg/mL): 25.5 ± 3.2
- thrombospondin (CD36) (thrombospondin (CD36)): little or no effect
- Flow cytometry Thrombospondin (thrombospondin (CD36); preincubation 15 μg/mL): 10.1 ± 1.9
- Flow cytometry Thrombospondin (thrombospondin (CD36); preincubation 30 μg/mL): 11.0 ± 2.3
- Flow cytometry Thrombospondin (thrombospondin (CD36); preincubation 60 μg/mL): 10.3 ± 1.9
- Flow cytometry Thrombospondin (thrombospondin (CD36); preincubation 90 μg/mL): 9.6 ± 2.0
- collagen-induced aggregation (platelets [1]): little or no effect
- Conventional platelet aggregation, Collagen 5 μg/ml (platelets [1]; preincubation 15 μg/mL): 64.95 ± 5.1%
- Conventional platelet aggregation, Collagen 5 μg/ml (platelets [1]; preincubation 30 μg/mL): 65.6 ± 8.7%
- Conventional platelet aggregation, Collagen 5 μg/ml (platelets [1]; preincubation 60 μg/mL): 66.6 ± 6.8%
- Conventional platelet aggregation, Collagen 5 μg/ml (platelets [1]; preincubation 90 μg/mL): 65.5 ± 6.0%
- Flow cytometry PAC-1 (PAC-1; preincubation 15 μg/mL): 11.4 ± 1.1
- Flow cytometry PAC-1 (PAC-1; preincubation 30 μg/mL): 11.2 ± 1.4
- Flow cytometry PAC-1 (PAC-1; preincubation 60 μg/mL): 10.9 ± 2.2
- Flow cytometry PAC-1 (PAC-1; preincubation 90 μg/mL): 10.3 ± 1.8
- GP IIb/IIIa activity with PAC-1 antibody (PAC-1; pretreated samples): decreased
- Flow cytometry PAR-1 (SPAN-12) (PAR-1 (SPAN-12); preincubation 15 μg/mL): 25.0 ± 4.2
- Flow cytometry PAR-1 (SPAN-12) (PAR-1 (SPAN-12); preincubation 30 μg/mL): 23.9 ± 3.8
- Flow cytometry PAR-1 (SPAN-12) (PAR-1 (SPAN-12); preincubation 60 μg/mL): 24.4 ± 2.8
- Flow cytometry PAR-1 (SPAN-12) (PAR-1 (SPAN-12); preincubation 90 μg/mL): 19.4 ± 3.5
- Conventional platelet aggregation, ADP 5 μM (platelets [2]; preincubation 15 μg/mL): 39.95 ± 11.9%
- Conventional platelet aggregation, ADP 5 μM (platelets [2]; preincubation 30 μg/mL): 40.4 ± 6.9%
- Conventional platelet aggregation, ADP 5 μM (platelets [2]; preincubation 60 μg/mL): 42.05 ± 7.2%
- Conventional platelet aggregation, ADP 5 μM (platelets [2]; preincubation 90 μg/mL): 42.65 ± 6.3%
- platelet aggregation induced by ADP (platelets [2]; pretreatment of blood samples with 15-30-60-90 μg/ml): uniformed significant inhibition
- Flow cytometry CD31 (PECAM-1 (CD31); preincubation 15 μg/mL): 58.4 ± 5.7
- Flow cytometry CD31 (PECAM-1 (CD31); preincubation 30 μg/mL): 57.8 ± 6.5
- Flow cytometry CD31 (PECAM-1 (CD31); preincubation 60 μg/mL): 55.8 ± 7.1
- Flow cytometry CD31 (PECAM-1 (CD31); preincubation 90 μg/mL): 50.9 ± 8.9
- Surface platelet expression of PECAM-1 (CD31) (PECAM-1 (CD31); pretreated samples): decreased
- Flow cytometry PAR-1 (WEDE15) (PAR-1 (WEDE15); preincubation 15 μg/mL): 40.6 ± 5.5
- Flow cytometry PAR-1 (WEDE15) (PAR-1 (WEDE15); preincubation 30 μg/mL): 36.1 ± 4.7
- Flow cytometry PAR-1 (WEDE15) (PAR-1 (WEDE15); preincubation 60 μg/mL): 37.7 ± 5.5
- Flow cytometry PAR-1 (WEDE15) (PAR-1 (WEDE15); preincubation 90 μg/mL): 34.3 ± 5.2
